Test system: 885512-296-R-J2-PDC complex spheroid growth, % test/control
Assay: Anticancer human tumor 885512-296-R-J2-PDC patient-derived breast carcinoma cell line growth inhibition [AhR]
Conditions: for IC50: curve of first compound; for viability, T/C: stronger effect = lower value
Outline: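 Agents were dosed in half-log steps down from roughly clinical Cmax, or from 10 microM where Cmax was unknown, alone and with AhR antagonists. Read-out: percent test/control growth of tumor spheroids containing HUVEC and MSC stromal cells.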

[1] = second compound 0.1 µM, first compound 0.00949 µM
[2] = second compound 0.1 µM, first compound 0.03 µM
[3] = second compound 0.1 µM, first compound 0.0949 µM
[4] = second compound 0.1 µM, first compound 0.3 µM
[5] = second compound 0.1 µM, first compound 0.949 µM
[6] = second compound 0.1 µM, first compound 3 µM
[7] = second compound 0.316 µM, first compound 0.00949 µM
[8] = second compound 0.316 µM, first compound 0.03 µM
[9] = second compound 0.316 µM, first compound 0.0949 µM
[10] = second compound 0.316 µM, first compound 0.3 µM
[11] = second compound 0.316 µM, first compound 0.949 µM
[12] = second compound 0.316 µM, first compound 3 µM
[13] = second compound 1 µM, first compound 0.00949 µM
[14] = second compound 1 µM, first compound 0.03 µM
[15] = second compound 1 µM, first compound 0.0949 µM
[16] = second compound 1 µM, first compound 0.3 µM
[17] = second compound 1 µM, first compound 0.949 µM
[18] = second compound 1 µM, first compound 3 µM
[19] = second compound 3.16 µM, first compound 0.00949 µM
[20] = second compound 3.16 µM, first compound 0.03 µM
[21] = second compound 3.16 µM, first compound 0.0949 µM
[22] = second compound 3.16 µM, first compound 0.3 µM
[23] = second compound 3.16 µM, first compound 0.949 µM
[24] = second compound 3.16 µM, first compound 3 µM
[25] = second compound 10 µM, first compound 0.00949 µM
[26] = second compound 10 µM, first compound 0.03 µM
[27] = second compound 10 µM, first compound 0.0949 µM
[28] = second compound 10 µM, first compound 0.3 µM
[29] = second compound 10 µM, first compound 0.949 µM
[30] = second compound 10 µM, first compound 3 µM
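Note: spheroids exposed to compounds for seven days.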

IC50 (second compound 0.1 µM) [µM]	IC50 (second compound 0.316 µM) [µM]	IC50 (second compound 1 µM) [µM]	IC50 (second compound 3.16 µM) [µM]	IC50 (second compound 10 µM) [µM]	Structure (SMILES)	viability, T/C [1] [%]	viability, T/C [2] [%]	viability, T/C [3] [%]	viability, T/C [4] [%]	viability, T/C [7] [%]	viability, T/C [8] [%]	viability, T/C [9] [%]	viability, T/C [10] [%]	viability, T/C [13] [%]	viability, T/C [14] [%]	viability, T/C [15] [%]	viability, T/C [16] [%]	viability, T/C [19] [%]	viability, T/C [20] [%]	viability, T/C [21] [%]	further results
> 3	> 3	> 3	> 3	> 3	CCN(c1cc(-c2ccc(CN3CCOCC3)cc2)cc(C(=O)NCc2c(C)cc(C)[nH]c2=O)c1C)C1CCOCC1 + CC(CO)NC(=O)c1cc(-c2ccc(Cl)cc2)nn(-c2cnn(C)c2)c1=O	105	96.8	83.3	79.6	106	102	93	78.9	88.8	111	93.3	82	88.3	90.3	82.9	viability, T/C [5]: 74.9%; viability, T/C [6]: 84.1%; viability, T/C [11]: 70.5%; viability, T/C [12]: 69.1%; viability, T/C [17]: 80.3%; viability, T/C [18]: 80.9%; viability, T/C [22]: 86.7%; viability, T/C [23]: 71.4%; viability, T/C [24]: 78.2%; viability, T/C [25]: 94.4%; viability, T/C [26]: 97.5%; viability, T/C [27]: 88%; viability, T/C [28]: 86.4%; viability, T/C [29]: 68.5%; viability, T/C [30]: 71.7%
0.273	> 0.3	> 0.3	0.234	0.274	Nc1ncn(C2CC(O)C(CO)S2)c(=O)n1 (stereo not given) + CC(CO)NC(=O)c1cc(-c2ccc(Cl)cc2)nn(-c2cnn(C)c2)c1=O	108	125	77	47.5	146	111	80.5	54.2	113	127	81.4	54.1	112	87.2	72.2	viability, T/C (second compound 0.1 µM, first compound 0.000949 µM): 98.8%; viability, T/C (second compound 0.1 µM, first compound 0.003 µM): 117%; viability, T/C (second compound 0.316 µM, first compound 0.000949 µM): 106%; viability, T/C (second compound 0.316 µM, first compound 0.003 µM): 92.9%; viability, T/C (second compound 1 µM, first compound 0.000949 µM): 106%; viability, T/C (second compound 1 µM, first compound 0.003 µM): 104%; viability, T/C (second compound 3.16 µM, first compound 0.000949 µM): 97.9%; viability, T/C (second compound 3.16 µM, first compound 0.003 µM): 101%; viability, T/C [22]: 43.9%; viability, T/C (second compound 10 µM, first compound 0.000949 µM): 101%; viability, T/C (second compound 10 µM, first compound 0.003 µM): 96.3%; viability, T/C [25]: 100%; viability, T/C [26]: 93.1%; viability, T/C [27]: 70.8%; viability, T/C [28]: 48.2%
0.0629	0.0672	0.0718	0.0656	0.0663	O=C(C=Cn1cnc(-c2cc(C(F)(F)F)cc(C(F)(F)F)c2)n1)NNc1cnccn1 + CC(CO)NC(=O)c1cc(-c2ccc(Cl)cc2)nn(-c2cnn(C)c2)c1=O	91.7	99.7	24.6	3.85	101	98.8	29.1	3.67	94.2	109	33.4	5.46	92.2	111	25.7	viability, T/C [5]: 2.45%; viability, T/C [6]: 0.96%; viability, T/C [11]: 1.87%; viability, T/C [12]: 0.84%; viability, T/C [17]: 1.59%; viability, T/C [18]: 0.91%; viability, T/C [22]: 6.14%; viability, T/C [23]: 1.92%; viability, T/C [24]: 0.85%; viability, T/C [25]: 114%; viability, T/C [26]: 107%; viability, T/C [27]: 24.1%; viability, T/C [28]: 4.61%; viability, T/C [29]: 2%; viability, T/C [30]: 0.87%
